Article PMC10096180, “Half-Sandwich Type Platinum-Group Metal Complexes of C-Glucosaminyl Azines: Synthesis and Antineoplastic and Antimicrobial Activities” (Molecules, 2023)
Where two headings read alike, the source gives them in different places.

Assays:
[1] = tested on: methicillin-resistant Staphylococcus aureus (MRSA) clinical isolates; assay: Broth microdilution MIC, clinical MRSA isolates; type: cell-based; conditions: 24 h, 0.08–40 μM
Method in brief: (§1)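 S. aureus and E. faecium clinical isolates (Debrecen, 2018–2020; MALDI-TOF-identified) tested by EUCAST broth microdilution in Mueller–Hinton broth at 5.0 × 10^5 CFU/mL across 0.08–40 μM (twofold). After 24 h at 37 °C, visually read; MIC is the lowest concentration giving ≥50% inhibition versus growth control. At least two runs in duplicate.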

[2] = Distribution coefficient (logD), n-octanol-PBS; type: physicochemical; conditions: n-octanol-PBS (pH = 7.4) system
Method: The logD values of the newly synthesized complexes were determined according to a procedure described in our previous publications. page 64: Ir-7b +1.17 Rh-7b +1.41 Ru-7c +1.31 Os-7c +1.59 Ir-7c +1.40 Rh-7c +1.13 Ru-7d +1.26 Os-7d +1.42 Ir-7d +1.30 Rh-7d +1.04 Ru-7e +2.22 Os-7e +2.21 Ir-7e +1.39 Rh-7e +1.66 *logD was determined in an n-octanol-PBS (pH = 7.4) system 64 (14 pictures or pasted objects on this page, not shown here)

[3] = tested on: Staphylococcus aureus (ATCC29213); assay: Broth microdilution MIC, reference strain; type: cell-based; conditions: 24 h, 0.08–40 μM, read-out: MIC S. aureus ATCC 29213
Method in brief: (§2)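 EUCAST broth microdilution in Mueller–Hinton broth, inoculum 5.0 × 10^5 CFU/mL, compounds at 0.08–40 μM (twofold dilutions), 24 h at 37 °C. Plates read visually; MIC taken as lowest concentration giving ≥50% inhibition versus drug-free growth control.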

[4] = tested on: Enterococcus faecalis (ATCC29212); assay: Broth microdilution MIC, reference strain; type: cell-based; conditions: 24 h, tested range 0.08–40 μM, read-out: MIC E. faecalis ATCC 29,212
Method in brief: as §2

[5] = molecular target: primary human dermal fibroblasts; assay: SRB binding assay, cytostasis, 48 h treatment; type: cell-based; conditions: read-out: Fibroblast SRB IC50
Method in brief: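 Ovarian cancer A2780 cells and primary human dermal fibroblasts treated 48 h, TCA-fixed, SRB-stained, absorbance at 540 nm relative to vehicle. IC50 from four-parameter fit when a plateau was reached or inhibition exceeded 90%; otherwise percent inhibition at 100 μM.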

Capan2 cells = assay: SRB assay, 48 h; type: cell-based
Method: (§3) Figure 8 Assessment of free ligand 3a and complex Ru-3a for cytostatic activity in multiple carcinomas. […] Cells were treated with the compounds in the concentrations indicated for 48 h; then, an SRB assay was performed. Data are represented as average ± SD from three biological replicates; individual assays were performed in duplicates. Values were normalized for vehicle-treated cells; absorbance for vehicle-treated cells equals 1. Statistical significance was assessed using a one-way ANOVA test comparing all values to the lowest concentration of a compound. Before the test, normality was assessed using the Shapiro–Wilk test, and the post hoc test was chosen accordingly. […] An SRB assay measures protein content of cells in correlation with the cell number in an assay well and can therefore be used to assess cell proliferation or long-term cytostasis. Cells were seeded in 96-well plates the day before the assay. Cells were treated with the compounds for 48 h. Then medium was removed, and cells were fixed with 10% trichloroacetic acid. […] Stained cells were washed in 1% acetic acid 5 times; acetic acid was removed, and cells were left to dry. Protein-bound SRB was released by adding 100 μL 10 mM Tris base. Plates were measured in a plate photometer (Thermo Scientific Multiscan GO spectrophotometer, Waltham, MA, USA) at 540 nm. On each plate, wells were designed to contain vehicle-treated cells. […] Statistical analysis was performed using version 8.0.1 of GraphPad Prism. Values were tested for normal distribution using the Shapiro–Wilk normality test. […] In other cases, the percentage of inhibition was taken for the maximum concentration (100 μM).

MCF7 cells = assay: SRB assay, 48 h; type: cell-based
Method: as §3

U251 cells = assay: SRB assay, 48 h; type: cell-based
Method: as §3

ID8 cells = assay: SRB assay, 48 h; type: cell-based
Method: as §3

[6] = tested on: vancomycin-resistant Enterococcus (VRE) clinical isolates; assay: Broth microdilution MIC, clinical VRE isolates; type: cell-based, E. faecium; conditions: 24 h, 0.08–40 μM
Method in brief: as §1

## Cc1ccc(C(C)C)cc1.F[P-](F)(F)(F)(F)F.N[C@@H]1[C@@H](OCc2ccccc2)[C@H](OCc2ccccc2)[C@@H](COCc2ccccc2)O[C@H]1c1ccccn1.[Cl][Ru+] [Ru-3a]
[1]; clinical isolate 20,426 MRSA, read-out: MIC 20,426 MRSA
  MIC: 5 µM
[1]; clinical isolate 24,035 MRSA, read-out: MIC 24,035 MRSA
  MIC: 5 µM
[1]; clinical isolate 24,268 MRSA, read-out: MIC 24,268 MRSA
  MIC: 5 µM
[1]; clinical isolate 24,272 MRSA, read-out: MIC 24,272 MRSA
  MIC: 5 µM
[1]; clinical isolate 24,328 MRSA, read-out: MIC 24,328 MRSA
  MIC: 5 µM
[1]; clinical isolate 24,408 MRSA, read-out: MIC 24,408 MRSA
  MIC: 5 µM
[2]
  logD: 2.72
[3]
  MIC: 5 µM
[4]
  MIC: 10 µM
[5]
  IC50: 9.62 µM
Capan2 cells
  Capan2 SRB Max Inhibition: >90%
  IC50: 2.25 µM
MCF7 cells
  IC50: 2.3 µM
  MCF7 SRB Max Inhibition: >90%
U251 cells
  IC50: 3.97 µM
  U251 SRB Max Inhibition: >90%
ID8 cells
  IC50: 2.54 µM
  ID8 SRB Max Inhibition: >90%
[6]; clinical isolate 25,051 VRE, read-out: MIC 25,051 VRE
  MIC: 5 µM
[6]; clinical isolate 25,498 VRE, read-out: MIC 25,498 VRE
  MIC: 5 µM
[6]; clinical isolate 27,085 VRE, read-out: MIC 27,085 VRE
  MIC: 5 µM
